Test results from patent US10954214B2 (Janssen Pharmaceutica NV, priority 2016, dated 2021).

Columns and labels:
TMD8 cells = assay: 4-day proliferation assay, TMD8; format: cell-based; details: Homo sapiens, 96 h, 4 days incubation, CellTiterGLO, read-out: Anti-proliferation: TMD-8 IC50
Outline: (§1)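 Each line was plated at 10,000 cells per well for linear growth, with no beta-mercaptoethanol during the assay. OCI-Ly3 cells were below passage 10.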

OCI-Ly3 cells = assay: 4-day proliferation assay, OCI-Ly3; format: cell-based, human; details: Homo sapiens, 96 h, 4 days incubation, CellTiterGLO, read-out: Anti-proliferation: OCI-LY-3 IC50
Outline: as §1

[1] = test system: IL10 secretion by OCI-LY3 ABC-DLBCL cells; assay: Human IL10 Mesoscale assay (OCI-LY3); format: cell-based; details: Homo sapiens, 24 h
Outline: (§2)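 TMD8 or OCI-LY3 cells (100,000/well) were exposed to compounds in 9 twofold dilutions from 15 μM to 58.6 nM (0.3% DMSO) for 24 h at 37 °C. Supernatant IL6 and IL10 were quantified by MSD electrochemiluminescence immunoassay. DMSO defined maximum signal and BTK inhibitor RN486 (30 nM–131 pM) defined maximum inhibition.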

[2] = test system: IL6 secretion by OCI-LY3 ABC-DLBCL cells; assay: Human IL6 Mesoscale assay (OCI-LY3); format: cell-based; details: Homo sapiens, 24 h
Outline: as §2

[3] = target: full-length MALT1 protein (Strep-MALT1(1-824)-His) (Homo sapiens (Human), UniProt Q9UDY8); assay: MALT1 Biochemical Protease Assay (Ac-LRSR-AMC substrate); details: 10 nM FL MALT1, 200 μM Ac-LRSR-AMC, 4 h at RT; read-out: MALT1_Biochemical activity (Ac-LRSR-amc) IC50
Outline: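 Fluorescence from AMC release off the quenched LRSR substrate was read after a 4 h reaction at RT. Values were normalised to no-enzyme and uninhibited controls and fitted for IC50 and Hill coefficient.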

full-length MALT1 protein (Strep-MALT1(1-824)-His), sequence (Q9UDY8 whole entry): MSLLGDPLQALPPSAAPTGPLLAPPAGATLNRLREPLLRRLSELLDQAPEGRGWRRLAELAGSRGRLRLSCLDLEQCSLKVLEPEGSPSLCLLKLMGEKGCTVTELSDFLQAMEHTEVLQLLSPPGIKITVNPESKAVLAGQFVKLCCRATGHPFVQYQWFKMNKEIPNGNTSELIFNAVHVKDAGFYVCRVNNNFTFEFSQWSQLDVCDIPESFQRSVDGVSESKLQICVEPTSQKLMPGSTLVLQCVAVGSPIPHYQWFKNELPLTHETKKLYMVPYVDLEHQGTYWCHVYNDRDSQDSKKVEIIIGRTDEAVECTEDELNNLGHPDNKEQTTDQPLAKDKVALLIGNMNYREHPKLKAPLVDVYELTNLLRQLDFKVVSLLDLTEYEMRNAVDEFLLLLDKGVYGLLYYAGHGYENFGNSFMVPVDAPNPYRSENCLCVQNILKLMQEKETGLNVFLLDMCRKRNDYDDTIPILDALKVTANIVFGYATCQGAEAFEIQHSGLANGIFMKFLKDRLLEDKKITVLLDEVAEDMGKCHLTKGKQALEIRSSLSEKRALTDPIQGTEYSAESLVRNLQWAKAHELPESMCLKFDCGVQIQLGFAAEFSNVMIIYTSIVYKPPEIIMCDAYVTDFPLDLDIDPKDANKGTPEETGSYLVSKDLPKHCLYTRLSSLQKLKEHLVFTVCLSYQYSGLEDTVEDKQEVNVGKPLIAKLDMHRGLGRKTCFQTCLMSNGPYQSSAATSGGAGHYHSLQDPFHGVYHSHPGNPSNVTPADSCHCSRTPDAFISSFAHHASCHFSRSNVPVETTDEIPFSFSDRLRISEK

| Compound | IC50 (TMD8 cells) [µM] | IC50 (OCI-Ly3 cells) [nM] | IC50 [1] [nM] | IC50 [2] [nM] | IC50 [3] [nM] |
| --- | --- | --- | --- | --- | --- |
| Cn1ccc(-c2ncc(NC(=O)c3cnn(-c4cccc5c(=O)[nH]ccc45)c3C(F)(F)F)cc2Cl)n1 [Cpd 157, N-(5-chloro-6-(1-methyl-1H-pyrazol-3-yl)pyridin-3-yl)-1-(1-oxo-1,2-dihydroisoquinolin-5-yl)-5-(trifluoromethyl)-1H-pyrazole-4-carboxamide] | 7.08 | 1270 | 912 | 1780 | 23 |
| O=C(Nc1cncc(C(F)(F)F)c1)c1cnn(-c2cccc3c(=O)[nH]ccc23)c1C(F)(F)F [Cpd 167, 1-(1-oxo-1,2-dihydroisoquinolin-5-yl)-5-(trifluoromethyl)-N-(5-(trifluoromethyl)pyridin-3-yl)-1H-pyrazole-4-carboxamide] | 4.57 | 1020 | 174 | 191 | 110 |
| Cc1nc(-c2ccn(C)n2)c(Cl)cc1NC(=O)c1cnn(-c2cccc3c(=O)[nH]ccc23)c1C(F)(F)F [Cpd 169, N-(5-chloro-2-methyl-6-(1-methyl-1H-pyrazol-3-yl)pyridin-3-yl)-1-(1-oxo-1,2-dihydroisoquinolin-5-yl)-5-(trifluoromethyl)-1H-pyrazole-4-carboxamide] | 8.91 | 1750 | 182 | 166 | 72 |
| O=C(Nc1cc(Cl)c(-n2nccn2)cc1F)c1cnn(-c2cccc3c(=O)[nH]ccc23)c1C(F)(F)F [Cpd 172, N-(5-chloro-2-fluoro-4-(2H-1,2,3-triazol-2-yl)phenyl)-1-(1-oxo-1,2-dihydroisoquinolin-5-yl)-5-(trifluoromethyl)-1H-pyrazole-4-carboxamide] | 4.79 | 504 | 158 | 204 | 69 |
| Cc1nc(-n2nccn2)c(C#N)cc1NC(=O)c1cnn(-c2cccc3c(=O)[nH]ccc23)c1C(F)(F)F [Cpd 176, N-(5-cyano-2-methyl-6-(2H-1,2,3-triazol-2-yl)pyridin-3-yl)-1-(1-oxo-1,2-dihydroisoquinolin-5-yl)-5-(trifluoromethyl)-1H-pyrazole-4-carboxamide] | > 20 | 1590 | 95 | 117 | 45 |
| Nc1cnnn1-c1ncc(NC(=O)c2cnn(-c3cccc4c(=O)[nH]ccc34)c2C(F)(F)F)cc1Cl [Cpd 178, N-(6-(5-amino-1H-1,2,3-triazol-1-yl)-5-chloropyridin-3-yl)-1-(1-oxo-1,2-dihydroisoquinolin-5-yl)-5-(trifluoromethyl)-1H-pyrazole-4-carboxamide] | > 20 | 2800 | 427 | 589 | 42 |
| N#Cc1cnn(-c2ncc(NC(=O)c3cnn(-c4cccc5ncccc45)c3C(F)(F)F)cc2Cl)n1 [Cpd 179, N-(5-chloro-6-(4-cyano-2H-1,2,3-triazol-2-yl)pyridin-3-yl)-1-(quinolin-5-yl)-5-(trifluoromethyl)-1H-pyrazole-4-carboxamide] | 1.95 | 763 | 174 | 288 | 42 |
| Cn1nc(-c2ncc(NC(=O)c3cnn(-c4cccc5ncccc45)c3C(F)(F)F)cc2C#N)cc1N [Cpd 181, N-(6-(5-amino-1-methyl-1H-pyrazol-3-yl)-5-cyanopyridin-3-yl)-1-(quinolin-5-yl)-5-(trifluoromethyl)-1H-pyrazole-4-carboxamide] | > 7.94 | 1500 | 110 | 141 | 38 |
| Cc1nc(-n2nccn2)c(Cl)cc1NC(=O)c1cnn(-c2cncc3ccccc23)c1C(F)(F)F [Cpd 191, N-(5-chloro-2-methyl-6-(2H-1,2,3-triazol-2-yl)pyridin-3-yl)-1-(isoquinolin-4-yl)-5-(trifluoromethyl)-1H-pyrazole-4-carboxamide] | 0.912 | 866 | 13 | 22 | 36 |
| O=C(Nc1cnc(-c2nnco2)c(Cl)c1)c1cnn(-c2cccc3ncccc23)c1C(F)(F)F [Cpd 192, N-(5-chloro-6-(1,3,4-oxadiazol-2-yl)pyridin-3-yl)-1-(quinolin-5-yl)-5-(trifluoromethyl)-1H-pyrazole-4-carboxamide] | 4.57 | 593 | 42 | 46 | 25 |
| O=C(Nc1cnc(-n2nccn2)c(Cl)c1)c1cnn(-c2cccc3nccn23)c1C(F)(F)F [Cpd 193, N-(5-chloro-6-(2H-1,2,3-triazol-2-yl)pyridin-3-yl)-1-(imidazo[1,2-a]pyridin-5-yl)-5-(trifluoromethyl)-1H-pyrazole-4-carboxamide] | 3.63 | 521 | 79 | 117 | 41 |
| O=C(Nc1cnc(-n2nccn2)c(Cl)c1)c1cnn(-c2cccn3nccc23)c1C(F)(F)F [Cpd 197, N-(5-chloro-6-(2H-1,2,3-triazol-2-yl)pyridin-3-yl)-1-(pyrazolo[1,5-a]pyridin-4-yl)-5-(trifluoromethyl)-1H-pyrazole-4-carboxamide] | 7.41 | 295 | 85 | 123 | 15 |
| N#Cc1cc(NC(=O)c2cnn(-c3cccc4nccn34)c2C(F)(F)F)cnc1-n1nccn1 [Cpd 200, N-(5-cyano-6-(2H-1,2,3-triazol-2-yl)pyridin-3-yl)-1-(imidazo[1,2-a]pyridin-5-yl)-5-(trifluoromethyl)-1H-pyrazole-4-carboxamide] | 7.41 | 1390 | 282 | 380 | 40 |
| O=C(Nc1cnc(-n2nccn2)c(Cl)c1)c1cnn(-c2cccc3ncc(Cl)n23)c1C(F)(F)F [Cpd 201, N-(5-chloro-6-(2H-1,2,3-triazol-2-yl)pyridin-3-yl)-1-(3-chloroimidazo[1,2-a]pyridin-5-yl)-5-(trifluoromethyl)-1H-pyrazole-4-carboxamide] | 3.63 | 782 | 120 | 117 | 28 |
| O=C(Nc1cc(Cl)c(-n2nccn2)cc1F)c1cnn(-c2cncc3c(F)cccc23)c1C(F)(F)F [Cpd 302, N-(5-chloro-2-fluoro-4-(2H-1,2,3-triazol-2-yl)phenyl)-1-(8-fluoroisoquinolin-4-yl)-5-(trifluoromethyl)-1H-pyrazole-4-carboxamide] | 0.955 | 692 | 59 | 102 | 54 |
| N#Cc1cc(NC(=O)c2cnn(-c3ccc(F)c4ncccc34)c2C(F)(F)F)cnc1-n1nccn1 [Cpd 308, N-(5-cyano-6-(2H-1,2,3-triazol-2-yl)pyridin-3-yl)-1-(8-fluoroquinolin-5-yl)-5-(trifluoromethyl)-1H-pyrazole-4-carboxamide] | 4.57 | 617 | 166 | 219 | 58 |
| N#Cc1cc(NC(=O)c2cnn(-c3cccc4ocnc34)c2C(F)(F)F)cnc1-n1nccn1 [Cpd 311, 1-(benzo[d]oxazol-4-yl)-N-(5-cyano-6-(2H-1,2,3-triazol-2-yl)pyridin-3-yl)-5-(trifluoromethyl)-1H-pyrazole-4-carboxamide] | 3.55 | 2320 | 37 | 34 | 50 |
| Cc1nc(-n2nccn2)c(C#N)cc1NC(=O)c1cnn(-c2cccc3nnsc23)c1C(F)(F)F [Cpd 314, 1-(benzo[d][1,2,3]thiadiazol-7-yl)-N-(5-cyano-2-methyl-6-(2H-1,2,3-triazol-2-yl)pyridin-3-yl)-5-(trifluoromethyl)-1H-pyrazole-4-carboxamide] | 1.86 | 631 | 692 | 1020 | 39 |
| N#Cc1cc(NC(=O)c2cnn(-c3cccc4scnc34)c2C(F)(F)F)cnc1-n1nccn1 [Cpd 316, 1-(benzo[d]thiazol-4-yl)-N-(5-cyano-6-(2H-1,2,3-triazol-2-yl)pyridin-3-yl)-5-(trifluoromethyl)-1H-pyrazole-4-carboxamide] | 3.09 | 1450 | 182 | 251 | 37 |
| N#Cc1cc(NC(=O)c2cnn(-c3ccc(N)c4ncccc34)c2C(F)(F)F)cnc1-n1nccn1 [Cpd 326, 1-(8-aminoquinolin-5-yl)-N-(5-cyano-6-(2H-1,2,3-triazol-2-yl)pyridin-3-yl)-5-(trifluoromethyl)-1H-pyrazole-4-carboxamide] | 3.24 | 881 | 89 | 105 | 45 |
| Cc1nc(-n2nccn2)c(C#N)cc1NC(=O)c1cnn(-c2cnc(N)c3ccccc23)c1C(F)(F)F [Cpd 338, 1-(1-aminoisoquinolin-4-yl)-N-(5-cyano-2-methyl-6-(2H-1,2,3-triazol-2-yl)pyridin-3-yl)-5-(trifluoromethyl)-1H-pyrazole-4-carboxamide] | 1.45 | 1150 | 31 | 45 | 58 |
